Laboratory results as given in patent US8440701B2, “Trisubstituted 1,2,4 triazoles” (Janssen Pharmaceutica NV, priority 2007, dated 2013).
Structures can show the parent of a compound that is named as a salt.

Tests used:
hα7-wt nAChR [1] = biological target: T1, hα7-wt nAChR (Homo sapiens, UniProt P36544); experiment: Ca2+ flux imaging (FDSS), potentiation of choline response; assay type: cell-based; conditions: for EC50: hα7-wt nAChR-expressing GH4C1 cells, potentiation of 100 μM choline, compounds 0.01 μM to 30 μM; for Emax: GH4-C1, maximal effect, efficacy of 100 μM choline defined as 100% in the absence of a PAM, GH4C1 cells
T1 construct: expressed in transfected cells; host or cells: GH4C1 cells (recombinant, stably over-expressing)
Protocol: Ca^2+ Flux Imaging (FDSS)
• Hanks buffered saline solution (HBSS, Invitrogen, Belgium), supplemented with 10 mM HEPES (Invitrogen, Belgium), CaCl2 to a final concentration of 5 mM, 0.1% Bovine serum albumin (Sigma-Aldrich NV, Belgium). b) Calcium-Sensitive Dye—Fluo-4AM • Fluo-4AM (Molecular Probes, USA) was dissolved in DMSO containing 10% Pluronic acid (Molecular Probes, USA) to give a stock solution which was diluted in assay buffer supplemented with 5 mM probenicid (Sigma, Aldrich NV, Belgium) to give a final concentration of 2 μM. c) 384-Well Plates • Black 384 well plate black/clear plates, PDL pre-coated (Corning, Incorporated, USA) d) Calcium Flux Measurement • A Functional drug screening system (FDSS, Hamamatsu) was used to measure intracellular free-calcium flux signals. Method
Monolayers of hα7-wt nAChR-expressing GH4C1 cells were grown in multi-well plates, in particular black-sided, transparent bottomed 384 well plates coated with poly-D-lysine for 24 hours prior to loading with a fluorescent calcium indicator, in a particular embodiment loading with fluo-4AM for up to 120 minutes.
PAM activity was detected in real time by applying the compound to be tested to the loaded cells along with a α7 nicotinic receptor agonist during constant monitoring of the cellular calcium mobilization by fluorescence in a FDSS. Compounds giving peak fluorescent responses greater than the response due to agonist alone, were considered to be α7 nAChR PAM's. In a particular embodiment, the α7 nicotinic receptor agonist was choline, a more particular embodiment choline applied at a sub-maximal concentration of 100 μM. In a further setting of the present invention the compounds to be tested were applied prior to the α7 nicotinic receptor agonist, in a particular embodiment up to 10 minutes prior to the agonist.
A control response to choline was calculated on each plate from the difference in peak in fluorescence in wells receiving either choline or assay buffer alone. Compounds of the present invention were tested at a concentration range from 0.01 μM to 30 μM. Compounds were considered to have an interesting activity when they potentiated the choline signal at least with 200% when tested at a concentration of 30 μM (the efficacy of 100 μM choline was defined as 100% in the absence of a PAM).
EC50 values (potency), maximal effect (% efficacy), and Hill slopes were estimated by fitting the sigmoidal equation to the data using GraphPad Prism (GraphPad Software, Inc., San Diego, Calif.). An EC50 (or pEC50) was determined as a concentration relating to half the maximal effect, when a clear sigmoidal curve with top plateau was obtained.

hα7-wt nAChR [2] = biological target: T1, hα7-wt nAChR; experiment: Whole-cell voltage-clamp recording, PAM type classification; assay type: cell-based; set-up: key: Type 1 compounds enhance the effect size of the current elicited by 1 mM choline but minimally alter the kinetics of the receptor.; Type 2 compounds enhance the effect size of the current elicited by 1 mM choline while reducing the rate and/or the extent of desensitization.; Type 3 compounds enhance the effect size of the current elicited by 1 mM choline. When tested at higher concentrations up to 10 μM they completely inhibit desensitization, in particular a 1 mM choline application of 250 milliseconds.; Type 4 compounds allow for an initial desensitization of the receptor followed by a re-opening of the receptor during agonist application; conditions: qualitative kinetic properties; 1 mM choline; hα7-wt nAChR-expressing GH4C1 cells
Protocol: The compounds of the present invention are classified as type 1-4, based on qualitative kinetic properties, as determined by whole-cell voltage-clamp recordings. This classification is based on the effect of an α7 PAM compound, as described hereinbefore, on the signal elicited by an agonist application. In particular, said agonist is choline at a concentration of 1 mM. In a preferred experimental setting, said α7 PAM compound and choline are simultaneously applied to the cell, as described hereinafter. Desensitization is defined as the closure of the receptor upon activation during the application of the agonist in whole-cell voltage-clamp electrophysiology measurements seen as the reduction of the […] current after initial activation by the agonist.
The definition of the PAM types 1-4 is described hereinafter: • Type 1 compounds enhance the effect size of the current elicited by 1 mM choline but minimally alter the kinetics of the receptor. In particular, the rate and the extent of desensitization, elicited by the agonist, is not affected. The compound-modulated response to 1 mM choline, therefore, is a close to linear scaling of the 1 mM choline response in absence of the α7 PAM compound. • Type 2 compounds enhance the effect size of the current elicited by 1 mM choline while reducing the rate and/or the extent of desensitization. • Type 3 compounds enhance the effect size of the current elicited by 1 mM choline. […] At low-potency concentrations of the α7 PAM compound, the agonist-induced activation, which is followed by desensitization, can still be separated from the compound-induced re-opening as an initial inward current-maximum. At higher potency concentrations of the α7 PAM compound, the re-opening occurs faster than the closure due to desensitization so that the initial current-maximum disappears.
The compounds of the present invention also have a potentiating effect on the response to choline when measured by whole-cell voltage-clamp electrophysiology in GH4C1 cells stably over-expressing the human wild-type α7 receptor, as described hereinafter.
Whole-Cell Voltage-Clamp Recording
Whole-cell voltage-clamp recording from mammalian cells has provided a powerful means of assessing the function of membrane proteins thought to be subunits of ligand-gated ion channels. Activation of such proteins by endogenous or exogenous ligands causes opening of a pore associated with the receptor through which ions flow down their electrochemical gradient. In the case of the hα7-wt nAChR-expressing GH4C1 recombinant cell line the preferential permeability to calcium of this receptor means that calcium flows into the cell upon activation by ACh, choline and other nicotinic ligands giving rise to a calcium current. Since this receptor rapidly desensitizes in the presence of an agonist it is important that an application system is used which is capable of very rapid switching of solutions (<100 ms) to prevent partial or full desensitisation of receptor responses coincident with the time of agonist application. Consequently, a second convenient technique to assess the enhancement of nicotinic efficacy is whole-cell voltage-clamp recording from hα7-wt nAChR-expressing GH4C1 cells coupled with a rapid-application system.
• The external recording solution consisted of 152 mM NaCl, 5 mM KCl, 1 mM MgCl2, 1 mM Calcium, 10 mM HEPES; pH 7.3. The internal recording solution consisted of 140 mM CsCl, 10 mM HEPES, 10 mM EGTA, 1 mM MgCl2, pH 7.3. • b) Patch-clamp recording was carried out using a Patch-clamp amplifier (Multiclamp 700A, Axon Instruments, CA, USA). The membrane potential of hα7-wt nAChR-expressing GH4C1 cells was voltage-clamped in the whole cell configuration (Hamill et al, 1981) with a borosilicate glass electrode of 1.5-3 MΩ tip resistance when filled with the internal recording solution. […]

T1 sequence (P36544 23-502): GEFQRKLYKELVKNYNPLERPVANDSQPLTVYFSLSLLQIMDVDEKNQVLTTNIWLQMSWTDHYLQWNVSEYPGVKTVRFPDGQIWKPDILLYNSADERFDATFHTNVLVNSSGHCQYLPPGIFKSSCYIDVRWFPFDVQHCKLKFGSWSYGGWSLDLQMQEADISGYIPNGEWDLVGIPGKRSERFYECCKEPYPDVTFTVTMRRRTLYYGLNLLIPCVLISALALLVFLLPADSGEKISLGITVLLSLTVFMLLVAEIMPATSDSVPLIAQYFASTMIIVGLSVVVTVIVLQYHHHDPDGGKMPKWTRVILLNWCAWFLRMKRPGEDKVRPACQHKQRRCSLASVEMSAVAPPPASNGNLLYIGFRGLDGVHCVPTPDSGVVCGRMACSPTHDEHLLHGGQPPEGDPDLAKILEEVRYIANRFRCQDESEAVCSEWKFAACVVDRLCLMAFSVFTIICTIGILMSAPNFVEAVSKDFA

Row | Compound | melting point [°C] | EC50 (hα7-wt nAChR [1]) [nM] | PAM_type (hα7-wt nAChR [2]) | Emax (hα7-wt nAChR [1]) [%]
1 | CCCCC(O)Cn1nc(Nc2ccc(F)c(F)c2)nc1-c1ccnc(C)c1 (racemic) [Compound E3, 1-[3-(3,4-Difluoro-phenylamino)-5-(2-methyl-pyridin-4-yl)-[1,2,4]triazol-1-yl]-hexan-2-ol] | 137.96 |  |  | 
2 | CCC(O)Cn1nc(Nc2ccc(F)c(F)c2)nc1-c1ccnc(C)c1 (single isomer, unassigned) [Compound E6] | 142.72 | 955 | 2 | 
3 | CCCC(O)Cn1nc(Nc2ccc(F)c(F)c2)nc1-c1cc(C)nc(C)c1 (single isomer, unassigned) [Compound E13] | 141.14 | 245 | 1 | 490
4 | CCCC(O)Cn1nc(Nc2ccc(F)c(F)c2)nc1-c1cc(C)nc(C)c1 (single isomer, unassigned) [Compound E14] | 139.48 | 316 | 2 | 
5 | CCCC(O)Cn1nc(Nc2ccc(F)c(F)c2)nc1-c1ccnc(C)c1 (single isomer, unassigned) [Compound E15] | 133.1 | 676 | 1 | 
6 | CCCC(O)Cn1nc(Nc2ccc(F)c(F)c2)nc1-c1ccnc(C)c1 (single isomer, unassigned) [Compound E16] | 134.82 | 417 | 2 | 
7 | CCC(O)Cn1nc(Nc2cccc(Cl)c2)nc1-c1cc(C)nc(C)c1 (single isomer, unassigned) [Compound E18] |  | 1290 | 1 | 
8 | CCC(O)Cn1nc(Nc2cc(OC)cc(C(F)(F)F)c2)nc1-c1ccnc(C)c1 (single isomer, unassigned) [Compound E20] | 120.54 | 214 | 4 | 
9 | CCC(O)Cn1nc(Nc2cccc(Cl)c2)nc1-c1cc(C)nc(C)c1 (single isomer, unassigned) [Compound E21] |  | 832 | 2 | 
10 | CCCC(O)Cn1nc(Nc2cccc(Cl)c2)nc1-c1cc(C)nc(C)c1 (single isomer, unassigned) [Compound E23] | 127.44 | 891 | 1 | 
11 | CCCC(O)Cn1nc(Nc2cccc(Cl)c2)nc1-c1cc(C)nc(C)c1 (single isomer, unassigned) [Compound E24] |  | 851 | 2 | 
12 | CCC(O)Cn1nc(Nc2ccc(F)c(F)c2)nc1-c1ccnc(C)c1 (single isomer, unassigned) [Compound E26] | 145.29 | 776 | 1 | 580
13 | CCC(O)Cn1nc(Nc2cc(OC)cc(C(F)(F)F)c2)nc1-c1ccnc(C)c1 (single isomer, unassigned) [Compound E28] | 117.16 | 1780 | 2 | 
14 | CCCCC(O)Cn1nc(Nc2ccc(F)c(F)c2)nc1-c1cc(C)nc(C)c1 (single isomer, unassigned; (-)) [Compound E4, (−)-1-[3-(3,4-Difluoro-phenylamino)-5-(2,6-dimethyl-pyridin-4-yl)-[1,2,4]triazol-1-yl]-hexan-2-ol] | 134.6 | 209 |  | 
15 | CC[C@H](O)Cn1nc(Nc2ccc(F)c(F)c2F)nc1-c1ccnc(C)c1 [Compound E31, (S)-1-[5-(2-Methyl-pyridin-4-yl)-3-(2,3,4-trifluoro-phenylamino)-[1,2,4]-triazol-1-yl]-butan-2-ol] |  | 550 | 2 | 
16 | CC[C@H](O)Cn1nc(Nc2ccc(F)c(F)c2F)nc1-c1cc(C)nc(C)c1 [Compound E32, (S)-1-[5-(2,6-Dimethyl-pyridin-4-yl)-3-(2,3,4-trifluoro-phenylamino)-[1,2,4]triazol-1-yl]-butan-2-ol] |  | 513 | 2 | 
17 | CC[C@H](O)Cn1nc(Nc2ccc(F)c(F)c2F)nc1-c1cc(C)nc(C)c1.Cl [Compound E33, (S)-1-[5-(2,6-Dimethyl-pyridin-4-yl)-3-(2,3,4-trifluoro-phenylamino)-[1,2,4]triazol-1-yl]-butan-2-ol HCl salt] | 237.44 | 437 |  | 
18 | CC[C@H](O)Cn1nc(Nc2cccc(Cl)c2F)nc1-c1cc(C)nc(C)c1 [Compound E34, (S)-1-[3-(3-Chloro-2-fluoro-phenylamino)-5-(2,6-dimethyl-pyridin-4-yl)-[1,2,4]triazol-1-yl]-butan-2-ol] |  | 316 | 2 | 
19 | CC[C@H](O)Cn1nc(Nc2cccc(Cl)c2F)nc1-c1cc(C)nc(C)c1 [Compound E35, (S)-1-[3-(3-Chloro-2-fluoro-phenylamino)-5-(2,6-dimethyl-pyridin-4-yl)-[1,2,4]-triazol-1-yl]-butan-2-ol HCl salt] |  | 468 |  | 
20 | CC[C@H](O)Cn1nc(Nc2cc(F)cc(OC)c2)nc1-c1ccnc(C)c1 [Compound E36, (S)-1-[3-(3-Fluoro-5-methoxy-phenylamino)-5-(2-methyl-pyridin-4-yl)-[1,2,4]triazol-1-yl]butan-2-ol HCl salt] |  | 2090 | 2 | 
21 | CC[C@H](O)Cn1nc(Nc2cc(F)cc(OC)c2)nc1-c1cc(C)nc(C)c1.Cl [Compound E37, (S)-1-[5-(2,6-Dimethyl-pyridin-4-yl)-3-(3-fluoro-5-methoxy-phenylamino)-[1,2,4]triazol-1-yl]-butan-2-ol HCl salt] |  | 1580 | 2 | 
